pIC50: −log10 of the molar value. Activity calls are given as the source filed them. The calls are words filed in the database; no cut-off is given here.
Experiments:
[1] = species on record: Homo sapiens; assay: Selectivity index, ratio of IC50 for inhibition of recombinant human TYK2 to IC50 for inhibition of recombinant human JAK1
[2] = Metabolic stability in rat hepatocytes assessed as intrinsic clearance at 1 uM incubated for 90 mins by LC/MS/MS analysis; type: ADME, cell-based, Hepatocyte
[3] = target: Cytochrome P450 2C9 (Homo sapiens, UniProt P11712); assay: Inhibition of CYP2C9 in human liver microsomes incubated in presence NADPH by LC-MS/MS analysis
Chain of Cytochrome P450 2C9 (P11712 whole entry): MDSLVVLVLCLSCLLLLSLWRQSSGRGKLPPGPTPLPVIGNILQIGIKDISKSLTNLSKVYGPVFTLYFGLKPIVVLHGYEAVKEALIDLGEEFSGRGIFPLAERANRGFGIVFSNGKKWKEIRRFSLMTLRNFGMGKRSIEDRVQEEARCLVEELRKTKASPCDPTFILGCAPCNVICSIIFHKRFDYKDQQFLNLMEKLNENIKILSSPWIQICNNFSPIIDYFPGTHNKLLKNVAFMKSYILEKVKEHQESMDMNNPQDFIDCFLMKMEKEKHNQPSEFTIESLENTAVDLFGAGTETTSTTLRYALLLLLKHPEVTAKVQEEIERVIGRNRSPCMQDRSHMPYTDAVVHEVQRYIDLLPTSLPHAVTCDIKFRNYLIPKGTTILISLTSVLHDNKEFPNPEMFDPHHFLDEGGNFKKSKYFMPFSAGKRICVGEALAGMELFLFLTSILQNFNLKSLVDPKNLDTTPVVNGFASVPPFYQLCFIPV

[4] = Microsomal stability in rat liver microsomes assessed as intrinsic clearance at 1 uM incubated for 60 mins in presence of NADPH regenerating system by LC-MS/MS analysis; type: ADME, Microsome; conditions: read-out: CLH
[5] = target: T1, Cytochrome P450 2B6 (Homo sapiens, UniProt P20813); assay: Inhibition of CYP2B6 in human liver microsomes incubated in presence NADPH by LC-MS/MS analysis
T1 sequence (P20813 whole entry): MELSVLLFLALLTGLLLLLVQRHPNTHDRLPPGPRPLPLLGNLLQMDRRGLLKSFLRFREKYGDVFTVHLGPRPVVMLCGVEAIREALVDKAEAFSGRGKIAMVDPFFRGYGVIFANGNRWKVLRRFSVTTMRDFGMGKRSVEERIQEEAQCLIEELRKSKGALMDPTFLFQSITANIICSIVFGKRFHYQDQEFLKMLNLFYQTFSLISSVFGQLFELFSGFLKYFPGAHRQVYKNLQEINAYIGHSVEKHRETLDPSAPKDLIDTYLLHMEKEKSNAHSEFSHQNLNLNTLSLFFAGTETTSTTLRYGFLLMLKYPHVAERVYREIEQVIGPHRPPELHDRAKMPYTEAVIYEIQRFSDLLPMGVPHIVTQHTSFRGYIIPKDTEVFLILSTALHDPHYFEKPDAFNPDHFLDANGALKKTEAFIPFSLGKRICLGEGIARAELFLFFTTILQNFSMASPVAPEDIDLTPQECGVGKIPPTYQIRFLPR

[6] = target: Cytochrome P450 2C19 (Homo sapiens, UniProt P33261); assay: Inhibition of CYP2C19 in human liver microsomes incubated in presence NADPH by LC-MS/MS analysis
Chain of Cytochrome P450 2C19 (P33261 whole entry): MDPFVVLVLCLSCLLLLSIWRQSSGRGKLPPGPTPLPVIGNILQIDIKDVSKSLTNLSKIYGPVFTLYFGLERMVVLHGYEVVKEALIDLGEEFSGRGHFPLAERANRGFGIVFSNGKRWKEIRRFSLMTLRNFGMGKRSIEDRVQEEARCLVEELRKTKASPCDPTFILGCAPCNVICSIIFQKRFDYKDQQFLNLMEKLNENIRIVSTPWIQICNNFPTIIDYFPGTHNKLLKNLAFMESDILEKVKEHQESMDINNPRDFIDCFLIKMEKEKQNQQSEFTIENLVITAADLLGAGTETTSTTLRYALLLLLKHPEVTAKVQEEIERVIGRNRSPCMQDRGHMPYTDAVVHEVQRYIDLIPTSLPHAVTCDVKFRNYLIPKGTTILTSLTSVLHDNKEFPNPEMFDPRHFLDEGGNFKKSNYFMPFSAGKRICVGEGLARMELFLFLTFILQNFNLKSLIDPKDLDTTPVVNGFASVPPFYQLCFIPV

[7] = target: Cytochrome P450 3A4 (Homo sapiens, UniProt P08684); assay: Inhibition of CYP3A4 in human liver microsomes incubated in presence NADPH by LC-MS/MS analysis
Chain of Cytochrome P450 3A4 (P08684 whole entry): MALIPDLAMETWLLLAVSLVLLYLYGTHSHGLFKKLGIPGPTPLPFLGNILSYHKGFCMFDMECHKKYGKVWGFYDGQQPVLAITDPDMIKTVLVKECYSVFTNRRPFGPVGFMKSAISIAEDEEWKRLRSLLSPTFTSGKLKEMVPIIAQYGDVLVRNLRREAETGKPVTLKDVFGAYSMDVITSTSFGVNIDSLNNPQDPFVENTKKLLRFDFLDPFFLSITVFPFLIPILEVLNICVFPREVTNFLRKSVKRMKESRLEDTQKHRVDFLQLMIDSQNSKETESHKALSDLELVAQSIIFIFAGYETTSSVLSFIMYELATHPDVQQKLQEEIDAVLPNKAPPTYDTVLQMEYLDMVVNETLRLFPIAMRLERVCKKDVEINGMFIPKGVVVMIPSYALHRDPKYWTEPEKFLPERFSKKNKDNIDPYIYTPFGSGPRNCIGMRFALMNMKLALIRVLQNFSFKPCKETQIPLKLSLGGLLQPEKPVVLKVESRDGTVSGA

[8] = Apparent permeability across basolateral to apical side in human Caco-2 cells at 10 uM measured after 120 mins by LC-MS/MS analysis
[9] = Apparent permeability across apical to basolateral side in human Caco-2 cells at 10 uM measured after 120 mins by LC-MS/MS analysis; conditions: for Papp A→B at 2 h, 10 µM: Caco-2
[10] = Metabolic stability in human hepatocytes assessed as intrinsic clearance at 1 uM incubated for 90 mins by LC/MS/MS analysis; type: ADME, cell-based, Hepatocyte
[11] = Plasma protein binding in rat assessed as unbound fraction at 2 uM incubated for 4 hrs by LC/MS/MS based balanced dialysis method
[12] = Metabolic stability in mouse hepatocytes assessed as intrinsic clearance at 1 uM incubated for 90 mins by LC/MS/MS analysis; type: ADME, cell-based, Hepatocyte
[13] = Microsomal stability in human liver microsomes assessed as intrinsic clearance at 1 uM incubated for 60 mins in presence of NADPH regenerating system by LC-MS/MS analysis; type: ADME, Microsome; conditions: read-out: CLH
[14] = target: T2, Cytochrome P450 1A2 (Homo sapiens, UniProt P05177); assay: Inhibition of CYP1A2 in human liver microsomes incubated in presence NADPH by LC-MS/MS analysis
T2 sequence (P05177 whole entry): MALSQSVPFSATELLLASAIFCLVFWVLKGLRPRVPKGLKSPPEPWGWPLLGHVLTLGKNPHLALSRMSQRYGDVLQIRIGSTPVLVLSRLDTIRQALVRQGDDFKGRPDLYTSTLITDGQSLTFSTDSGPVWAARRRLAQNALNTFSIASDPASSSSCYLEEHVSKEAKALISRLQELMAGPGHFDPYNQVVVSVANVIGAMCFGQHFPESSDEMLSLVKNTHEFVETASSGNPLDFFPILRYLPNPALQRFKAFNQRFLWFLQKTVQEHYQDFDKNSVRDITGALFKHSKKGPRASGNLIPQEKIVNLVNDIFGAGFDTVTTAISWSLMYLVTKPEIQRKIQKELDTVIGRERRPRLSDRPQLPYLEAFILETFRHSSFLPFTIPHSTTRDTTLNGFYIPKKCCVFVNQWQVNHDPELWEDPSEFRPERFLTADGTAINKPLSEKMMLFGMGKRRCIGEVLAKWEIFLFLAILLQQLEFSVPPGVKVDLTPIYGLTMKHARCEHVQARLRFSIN

[15] = Plasma protein binding in mouse assessed as unbound fraction at 2 uM incubated for 4 hrs by LC/MS/MS based balanced dialysis method
[16] = Plasma protein binding in human assessed as unbound fraction at 2 uM incubated for 4 hrs by LC/MS/MS based balanced dialysis method
[17] = species on record: Homo sapiens; assay: Selectivity index, ratio of IC50 for inhibition of recombinant human JAK2 to IC50 for inhibition of recombinant human JAK1
[18] = Efflux ratio of apparent permeability from basolateral to apical side over apical to basolateral side in human Caco-2 cells at 10 uM incubated for 120 mins by LC-MS/MS analysis
[19] = target: Cytochrome P450 2D6 (Homo sapiens, UniProt P10635); assay: Inhibition of CYP2D6 in human liver microsomes incubated in presence NADPH by LC-MS/MS analysis
Chain of Cytochrome P450 2D6 (P10635 whole entry): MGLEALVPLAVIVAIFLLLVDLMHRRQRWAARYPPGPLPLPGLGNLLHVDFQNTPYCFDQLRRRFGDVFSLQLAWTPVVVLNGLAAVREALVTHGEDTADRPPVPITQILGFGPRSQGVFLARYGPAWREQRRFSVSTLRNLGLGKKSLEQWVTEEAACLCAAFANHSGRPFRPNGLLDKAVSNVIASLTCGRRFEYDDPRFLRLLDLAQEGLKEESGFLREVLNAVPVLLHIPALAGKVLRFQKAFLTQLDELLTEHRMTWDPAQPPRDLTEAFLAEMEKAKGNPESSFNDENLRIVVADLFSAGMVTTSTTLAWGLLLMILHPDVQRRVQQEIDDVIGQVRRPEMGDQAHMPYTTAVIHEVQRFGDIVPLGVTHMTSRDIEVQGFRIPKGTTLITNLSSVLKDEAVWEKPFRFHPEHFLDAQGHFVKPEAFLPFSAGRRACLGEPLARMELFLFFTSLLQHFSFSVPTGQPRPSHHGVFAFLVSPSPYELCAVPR

[20] = target: T3, Cytochrome P450 2C8 (Homo sapiens, UniProt P10632); assay: Inhibition of CYP2C8 in human liver microsomes incubated in presence NADPH by LC-MS/MS analysis
T3 sequence (P10632 whole entry): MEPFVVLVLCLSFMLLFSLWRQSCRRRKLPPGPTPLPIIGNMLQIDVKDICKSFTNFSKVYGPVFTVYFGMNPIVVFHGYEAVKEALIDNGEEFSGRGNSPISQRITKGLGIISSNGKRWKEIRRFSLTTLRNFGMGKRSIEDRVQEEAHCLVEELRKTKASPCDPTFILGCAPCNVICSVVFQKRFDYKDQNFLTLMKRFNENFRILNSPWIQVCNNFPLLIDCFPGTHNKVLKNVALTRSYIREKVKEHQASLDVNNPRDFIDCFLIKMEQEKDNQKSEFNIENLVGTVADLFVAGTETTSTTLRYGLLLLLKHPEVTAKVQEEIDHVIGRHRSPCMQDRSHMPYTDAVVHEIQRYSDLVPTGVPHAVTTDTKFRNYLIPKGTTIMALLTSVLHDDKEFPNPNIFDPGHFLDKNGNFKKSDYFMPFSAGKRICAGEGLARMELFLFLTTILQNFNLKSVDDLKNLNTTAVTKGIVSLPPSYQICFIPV

[21] = Microsomal stability in mouse liver microsomes assessed as intrinsic clearance at 1 uM incubated for 60 mins in presence of NADPH regenerating system by LC-MS/MS analysis; type: ADME, Microsome; conditions: read-out: CLH
[22] = tested on: Mus musculus; assay: Antiarthritic activity in collagen-induced rheumatoid arthritis DBA/1 mouse model assessed as reduction in incidence rate at 15 mg/kg, po BID administered for 14 days starting from 7 days before immunization to 21 days after immunization and measured post last dose; type: functional; set-up: scale not given: the % may be the effect or the level left; conditions: time 14 day
[23] = tested on: Mus musculus; assay: Antiarthritic activity in collagen-induced rheumatoid arthritis DBA/1 mouse model assessed as reduction in clinical score AUC at 15 mg/kg, po BID administered for 14 days starting from 7 days before immunization to 21 days after immunization and measured on day 41 post immunization; type: functional, organism-based; conditions: time 14.0 day

Row | SMILES | CLH [2] [µL/min/mg] | pIC50 [3] | microsomal CLint at 1 µM [4] [µL/min/mg] | pIC50 [5] | pIC50 [6] | pIC50 [7] | Papp B→A at 2 h, 10 µM [8] [×10⁻⁶ cm/s] | Papp A→B at 2 h, 10 µM [9] [×10⁻⁶ cm/s] | CLH [10] [µL/min/mg] | fraction unbound at 4 h, 2 µM [11] | CLH [12] [µL/min/mg] | microsomal CLint at 1 µM [13] [µL/min/mg] | pIC50 [14] | fraction unbound at 4 h, 2 µM [15] | fraction unbound at 4 h, 2 µM [16] | pIC50 [19] | pIC50 [20] | microsomal CLint at 1 µM [21] [µL/min/mg] | further results
1 | O=C(Nc1nc2cccc(C3CCC(NC(=O)C4(F)CC4)CC3)n2n1)C1CC1 (stereo not drawn) | < 6.4 | < 4.00 | < 9.6 | < 4.00 | < 4.00 | < 4.00 | 28.6 | 4.36 | < 6.4 | 0.196 | 15.3 | < 9.6 | < 4.00 | 0.28 | 0.306 | < 4.00 | < 4.00 | 10.6 | Ratio IC50 [1]: 4.1; Ratio IC50 [17]: 11.6; efflux ratio at 2 h, 10 µM [18]: 6.57
2 | N#CCC(=O)N1CC2(CCC(c3cccc4nc(NC(=O)C5CC5)nn34)CC2)C1 | < 6.4 | < 4.00 | < 9.6 | < 4.00 | < 4.00 | < 4.00 | 20.4 | 0.1 | < 6.4 | 0.544 | < 6.6 | < 9.6 | < 4.00 | 0.479 | 0.515 | < 4.00 | < 4.00 | < 9.6 | –
3 | O=C(Nc1nc2cccc(-c3ccc(CN4CCS(=O)(=O)CC4)cc3)n2n1)C1CC1 [FILGOTINIB] | < 6.4 | < 4.00 | < 9.6 | < 4.00 | 4.05 | – | 24.5 | – | < 6.4 | 0.399 | 22.3 | < 9.6 | 4.18 | 0.316 | 0.518 | < 4.00 | < 4.00 | < 9.6 | Activity [22]: 100%; Papp ([9]; caco-2, 2 h, 10 µM): 0.28 10^-6 cm/s; Activity [23]: Active
